Measurements: ChEMBL document CHEMBL1201862, “PubChem BioAssay data set” (2004)
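96-well plates; 48 h exposure; 5 concentrations. Endpoints by linear interpolation between flanking doses. Not reached: highest tested concentration assigned. GI50 = concentration required for 50% inhibition of growth.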 Active and inactive are the calls of the source. Rule as the data show it: active = GI50 up to about 1.1 µM and inactive = higher.

Columns and labels:
Assay in all cases: NCI tumour cell line growth inhibition, 48 h
HCT-116 = system: HCT-116
RPMI-8226 = system: RPMI-8226
SK-MEL-5 = system: SK-MEL-5
SW-620 = system: SW-620
HOP-92 = system: HOP-92
NCI-H522 = system: NCI-H522
HL-60 = system: HL-60
HOP-62 = system: HOP-62
SR = system: SR
SK-MEL-2 = system: SK-MEL-2
OVCAR-4 = system: OVCAR-4
NCI-H460 = system: NCI-H460
NCI-H23 = system: NCI-H23
SF-295 = system: SF-295
TK-10 = system: TK-10
SF-268 = system: SF-268
LOX IMVI = system: LOX IMVI
MCF7 = system: MCF7
DU-145 = system: DU-145

Measured: GI50

COc1ccc2c(c1)[n+]([O-])c(C(N)=O)c(N)[n+]2[O-]
inactive: HCT-116 > 100 µM | RPMI-8226 > 100 µM | SK-MEL-5 40.1 µM | SW-620 57.9 µM | HOP-92 > 100 µM | NCI-H522 17.1 µM | HL-60 40.8 µM | HOP-62 > 100 µM | SR > 100 µM | SK-MEL-2 > 100 µM | OVCAR-4 > 100 µM | NCI-H460 54.6 µM | NCI-H23 28.8 µM | SF-295 > 100 µM

CCn1c(O)c(C(=O)Nc2cccs2)c(=O)n(CC)c1=S
inactive: HCT-116 19.2 µM | TK-10 29 µM | RPMI-8226 20.4 µM | SK-MEL-5 18 µM | SW-620 23.2 µM | HOP-92 21 µM | NCI-H522 18 µM | HL-60 19.8 µM | SF-268 19.3 µM | HOP-62 21.6 µM | SR 29.5 µM | SK-MEL-2 17.3 µM | LOX IMVI 17 µM | OVCAR-4 15.3 µM | NCI-H460 15.5 µM | NCI-H23 15.8 µM | SF-295 11.7 µM

CC1(SCC(N)C(=O)O)CC(=O)NC1=O (centres undefined)
inactive: HCT-116 > 100 µM | TK-10 > 100 µM | RPMI-8226 > 100 µM | SK-MEL-5 > 100 µM | SW-620 > 100 µM | HOP-92 > 100 µM | NCI-H522 > 100 µM | HL-60 > 100 µM | SF-268 > 100 µM | HOP-62 > 100 µM | SR > 100 µM | SK-MEL-2 > 100 µM | LOX IMVI > 100 µM | OVCAR-4 > 100 µM | NCI-H460 > 100 µM | NCI-H23 > 100 µM | SF-295 > 100 µM

Nc1nc(SCc2ccccc2Cl)c2ncn(C3OC(CO)C(O)C3O)c2n1 (centres undefined)
inactive: HCT-116 42.4 µM | TK-10 > 100 µM | RPMI-8226 56 µM | SK-MEL-5 54.2 µM | SW-620 > 100 µM | HOP-92 98.2 µM | NCI-H522 30.1 µM | HL-60 50.5 µM | SF-268 80.4 µM | HOP-62 > 100 µM | SR 42.7 µM | SK-MEL-2 > 100 µM | LOX IMVI 68.9 µM | OVCAR-4 74.3 µM | NCI-H460 > 100 µM | NCI-H23 > 100 µM | SF-295 59.4 µM

CSc1cnc2ccccc2c1Sc1c[nH]c2ccccc2c1=O
inactive: HCT-116 9.48 µM | TK-10 36 µM | RPMI-8226 6.65 µM | SK-MEL-5 6.25 µM | SW-620 3.56 µM | HOP-92 8.39 µM | NCI-H522 1.93 µM | HL-60 3.3 µM | SF-268 17.3 µM | HOP-62 12.2 µM | SR 3.96 µM | SK-MEL-2 10.4 µM | LOX IMVI 11.5 µM | OVCAR-4 14.1 µM | NCI-H460 6.75 µM | NCI-H23 11.3 µM | SF-295 7.59 µM

O=C(NC(CS)C(=O)O)c1cccc2c(=O)c3ccccc3[nH]c12 (centres undefined)
inactive: HCT-116 > 100 µM | TK-10 > 100 µM | RPMI-8226 > 100 µM | SK-MEL-5 > 100 µM | MCF7 > 100 µM | SW-620 > 100 µM | HOP-92 > 100 µM | NCI-H522 47 µM | HL-60 > 100 µM | SF-268 > 100 µM | HOP-62 > 100 µM | SR > 100 µM | SK-MEL-2 > 100 µM | LOX IMVI > 100 µM | OVCAR-4 > 100 µM | DU-145 > 100 µM | NCI-H23 > 100 µM | SF-295 > 100 µM

O=C(O)CNC(=O)c1ccc(-c2ccccc2)cc1
inactive: HCT-116 > 100 µM | TK-10 > 100 µM | RPMI-8226 > 100 µM | SK-MEL-5 > 100 µM | MCF7 > 100 µM | SW-620 > 100 µM | HOP-92 61.1 µM | NCI-H522 > 100 µM | HL-60 > 100 µM | SF-268 > 100 µM | HOP-62 > 100 µM | SR > 100 µM | SK-MEL-2 > 100 µM | LOX IMVI > 100 µM | DU-145 > 100 µM | NCI-H460 > 100 µM | NCI-H23 > 100 µM | SF-295 > 100 µM

c1ccc2cc(-c3cc4ccccc4s3)ccc2c1
inactive: HCT-116 > 100 µM | TK-10 > 100 µM | RPMI-8226 > 100 µM | SK-MEL-5 > 100 µM | SW-620 > 100 µM | HOP-92 > 100 µM | NCI-H522 > 100 µM | HL-60 > 100 µM | SF-268 > 100 µM | HOP-62 > 100 µM | SR > 100 µM | SK-MEL-2 > 100 µM | LOX IMVI > 100 µM | OVCAR-4 > 100 µM | NCI-H460 > 100 µM | NCI-H23 > 100 µM | SF-295 > 100 µM

N#C/C(C(=O)NCc1ccccc1)=C(/N)N1CCCC1
inactive: HCT-116 > 100 µM | TK-10 > 100 µM | RPMI-8226 > 100 µM | SK-MEL-5 > 100 µM | SW-620 > 100 µM | HOP-92 97.7 µM | NCI-H522 > 100 µM | HL-60 > 100 µM | SF-268 > 100 µM | HOP-62 > 100 µM | SR > 100 µM | SK-MEL-2 > 100 µM | LOX IMVI > 100 µM | OVCAR-4 > 100 µM | DU-145 > 100 µM | NCI-H460 > 100 µM | NCI-H23 > 100 µM | SF-295 > 100 µM

Cc1cc(C)c(OC(=O)Nc2cccc3ccccc23)c(-c2ccccc2)c1
inactive: HCT-116 34.9 µM | TK-10 33.4 µM | RPMI-8226 22.5 µM | SK-MEL-5 16.4 µM | MCF7 52.5 µM | SW-620 57.8 µM | HOP-92 26.1 µM | HL-60 21.1 µM | SF-268 12.6 µM | HOP-62 65.8 µM | SR 19.6 µM | SK-MEL-2 > 10 µM | LOX IMVI 24.8 µM | OVCAR-4 31.3 µM | DU-145 31.9 µM | NCI-H460 47.9 µM | NCI-H23 30.5 µM | SF-295 48.8 µM

S=c1sc2c(n1-c1ccccc1)N=CNC2S (centres undefined)
inactive: HCT-116 98.4 µM | TK-10 > 100 µM | RPMI-8226 62.2 µM | SK-MEL-5 57 µM | SW-620 > 100 µM | HOP-92 25.9 µM | NCI-H522 45.5 µM | HL-60 71.6 µM | SF-268 56.5 µM | HOP-62 41.3 µM | SR 95.9 µM | SK-MEL-2 > 100 µM | LOX IMVI > 100 µM | OVCAR-4 > 100 µM | NCI-H460 > 100 µM | NCI-H23 63 µM | SF-295 84.7 µM

CCC(=O)c1cn(C)c(=O)c2ccccc12
inactive: TK-10 > 100 µM | RPMI-8226 > 100 µM | SK-MEL-5 > 100 µM | SW-620 > 100 µM | HOP-92 > 100 µM | NCI-H522 > 100 µM | HL-60 > 100 µM | SF-268 > 100 µM | HOP-62 > 100 µM | SR > 100 µM | SK-MEL-2 > 100 µM | LOX IMVI > 100 µM | OVCAR-4 > 100 µM | NCI-H460 > 100 µM | NCI-H23 > 100 µM | SF-295 > 100 µM
